Measured values: patent US6541503B2, “Substituted oxindole derivatives as protein tyrosine kinase and as protein serine/threonine kinase inhibitors” (SmithKline Beecham Corporation, priority 1997, dated 2003)
Read-outs that look alike come from different tables or passages of the source.

Legend:
[1] = test system: RKO colon adenocarcinoma cells; assay: FACS assay (cell death by flow cytometry), RKO; type: cell-based, human; conditions: Homo sapiens, 72 h, read-out: FACS RKO IC50
Protocol: (§1) These assays allow determination of both cell death and changes in cell cycle profile in cells following treatment of the compound. The assay is performend as follows:
(§2) 1. Cells are incubated in DMEM to which 10% FCS has been added in a humidified incubator at 37° C. and 5% by volume of CO2 in air. The cells are innoculated in 6-well plates at a density of 0.5-5×10^5 cells per well.
(§3) 2. The test compound is added in serial dilutions 24-36 h after plating in 0.5% DMSO. The plates are then incubated a further 72 h in the presence of the compound. During this time, cells in control cultures undergo at least three cell divisions.
(§4) 3. After incubation, the media is collected and cells are harvested by trypsinization. The cells and media are pooled and pelleted by centrifugation.
(§5) 4. The cell pellet is fixed in a final volume of 3 mL of 50% ice cold MeOH and incubated for a minimum of 30 min at −20° C.
(§6) 5. The cells are pelleted by centrifugation and resuspended in 0.5 mL PBS containing 1%FCS, […] Propidium Iodide (PI) and 5 mg/mL RNase A and incubated 30 min at 37° C. in the dark.
(§7) 6. The samples are analysed by flow cytometry using the relative incorporation of PI as a measure of DNA content of each cell. The % Dead cells is recorded as % of events with less than 2N DNA.
(§8) HDF are normal diploid fibroblast cells. RKO are colon adenocarcinoma cells and MES/SA are […].

[2] = test system: MES/SA ovarian carcinoma cells; assay: FACS assay (cell death by flow cytometry), MES/SA; type: cell-based; conditions: Homo sapiens, MES-SA, 72 h, read-out: FACS MES/SA IC50
Protocol: as §1, §2, §3, §4, §5, §6, §7, §8

[3] = test system: human diploid fibroblasts (HDF-3); assay: G1-S progression assay (BrdU incorporation); type: cell-based
Protocol: This assay is designed to determine the ability of compounds to inhibit progression of cells from G1 into S-phase. […] The protocol is as follows:
(1) Grow human diploid fibroblasts (HDF-3) in 100 mm tissue culture dish to confluency. (2) Plate 6-7×10^3 cells/well in a 96 well plate in 100 μl of DMEM. (3) After 16-17 h add various dilutions of test compounds (0.045-100 μM). Dilute compound in DMEM containing DMSO and add 100 μl to each well so that the DMSO conc. is 0.6-0.8% in 200 μl final volume. (4) Two h after addition of compound, add 20 ul of 100 μM BrdU (final conc. 10 μM) Make 100 μM solution in DMEM from 10 mM stock solution. (5) After 4 h, add 200 μl PBS to each well and remove the contents of the wells by inverting the plate and soaking on to the paper towel. Repeat the washing step three times, with 400 ul PBS each time. (6) Fix the cells and denature the DNA by adding 200 μl fixation/denaturation solution to each well for 30-40 min. (7) Remove the fixation/denaturation solution by tapping the plate on the paper towel and add 75 ul of anti BrdU peroxidase antibody to each well. (dilute the antibody to 0.1 U/mL from 15 U/mL stock in PBS containing 1% BSA, Fraction V). Incubate the plate O/N at 4° C. (8) Remove the antibody solution and wash wells four times with 400 μl of PBS. Let the wash solution stay for 3-4 min during each wash. (9) Drain the wells and add 100 μl of chemiluminiscence Elisa reagent (Prepare the reagent 15-20 min before use to bring it to rt by mixing 100 parts of reagent A with 1 part of reagent B). (10) Read the plate in a luminometer. Take 2-3 readings within 6-7 min. Perform the following controls:
Deoxybromouridine (BrdU), anti BrdU peroxidase antibodies, fixation/denaturation solution, chemiluminiscence reagent and BSA Fraction V, were obtained from Boehringer Mannheim. The 96-well white plate with clear bottom were purchased from Corning Costar Corporation. Dulbecco's Modified Eagle Medium containing high glucose, L-glutamine and pyridoxine HCl was obtained from GIBCO BRL.

MDA MB468 = assay: MTT assay, MDA MB468; type: cell-based, human
Protocol: Compounds are tested for their ability to inhibit cell proliferation and cell viability. The metabolic conversion of 3-(4,5-dimethylthiazol-2-yl)-2,5-diphenyltetrazolium bromide (MTT, Sigma #M2128) to a reduced form is a commonly used measure of cellular viability. Following is the procedure:
Cells are maintained in 75 cm^2 tissue culture flasks until ready for use. The cells are grown and plated for the assay in Dulbecco's modified Eagle's media (DMEM) containing 10% fetal bovine serum. For example, the following cell lines can be used: a) human foreskin fibroblasts (HFF); b) HT29 (human colon carcinoma cell line); c)MDA-MB-468 (human breast carcinoma cell line); d) RKO (human colon adenocarcinoma cell line); e) SW620 (human colon carcinoma cell line); f) A549 (human lung carcinoma cell line); and g) MIA PACA (human pancreatic carcinoma cell line). Cells are maintained at 37° C. in 10% CO2, 90% humidified air. Cells are plated in 96-well tissue culture plates at the densities listed below. 100 μL of cell suspension is added to each well of the 96-well plate except the top row of the plate which contains no cells and serves as a reference for the spectrophotometer.
Cells are incubated overnight in DMEM containing 10% fetal bovine serum at 37° C. in 10% CO2, 90% humidified air prior to dosing. […] Compounds with solubilities of less than 30 μM are dosed at the highest soluble concentration. Stock solutions of compounds are made in 100% dimethyl sulfoxide (DMSO). Stock solutions are diluted in DMEM containing 100 μg/ml gentamicin and 0.3 to 0.6% DMSO at the twice the highest concentration to be placed on the cells. If compounds have been dissolved in DMSO the final concentration of DMSO on the cells is kept below 0.3%. Three-fold serial dilutions are performed on each compound to prepare 10 concentrations of the compound for dosing. 100 μl of diluted compound is added to the 100 μl of media currently on the dish. For each concentration of compound, 2-4 replicate wells are prepared.
Cells are returned to incubator and allowed to proliferate in the presence of compound for 72 h before addition of MTT. MTT is prepared in phosphate buffered saline (Irvine Scientific #9240) at a concentration of 2 mg/ml. 50 μl per well of MTT solution is added to the 200 μl of media to yield a final concentration of 0.4 mg/ml and plates are returned to the incubator for 4 h. After 4 h incubation the media, compound and MTT mixture is aspirated from the plates and 100 μl of 100% DMSO is added to each well in addition to 25 μl of Sorenson's Buffer (0.1M glycine, 0.1M NaCl, pH 10.5). Quantitation of metabolic reduction of MTT in each plate is performed by reading optical density at 570 nm wavelength on a Molecular Devices UVmax microplate reader. Growth inhibition curves and 50% inhibitory concentrations are determined using Microsoft Excel.

Lck = Lck (Homo sapiens, UniProt P06239); assay: Lck peptide phosphorylation assay (Elisa or isotope based); type: biochemical
Lck, sequence (P06239 whole entry, species assumed): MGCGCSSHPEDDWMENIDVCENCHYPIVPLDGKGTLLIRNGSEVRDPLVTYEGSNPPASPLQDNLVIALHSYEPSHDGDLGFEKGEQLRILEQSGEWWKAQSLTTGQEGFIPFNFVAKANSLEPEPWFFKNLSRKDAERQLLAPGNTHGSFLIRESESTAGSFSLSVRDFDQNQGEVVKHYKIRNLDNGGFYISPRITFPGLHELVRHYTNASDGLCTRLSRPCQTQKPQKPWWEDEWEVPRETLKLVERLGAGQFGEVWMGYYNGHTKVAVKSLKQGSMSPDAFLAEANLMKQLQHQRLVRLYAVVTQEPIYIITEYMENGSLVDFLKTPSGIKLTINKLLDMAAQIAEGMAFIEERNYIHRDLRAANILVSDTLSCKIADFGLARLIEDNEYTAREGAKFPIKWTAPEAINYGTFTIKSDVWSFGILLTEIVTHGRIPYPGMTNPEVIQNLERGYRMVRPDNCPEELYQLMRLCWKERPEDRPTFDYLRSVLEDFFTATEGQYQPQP
Protocol: The src and Ick proteins were purified to homogeneity from a baculovirus expression system and preactivated before adding to assay mixtures. The maximum activation was achieved by incubating concentrated enzyme (10-30 mM) on ice for 40 min in the presence of 1 mM ATP and 10 mM MgCl2 in 100 mM HEPES, pH 7.5. The activated enzyme was diluted to 2 nM into a 50-mL reaction mixture containing 100 mM HEPES, pH 7.5. 5 mM ATP, 10 mM MgCl2, 2 mM peptide, 0.05 mg/mL BSA, and an inhibitor at varying concentrations and with or without 8 mCi/mL [γ-^33P]ATP dependent upon the method of analysis for the extent of reaction. The controls were reactions in the presence (negative controls) or absence (positive controls) of 50 mM EDTA. Reactions were allowed to proceed for 30 min at room temperature and quenched with addition of EDTA to 50 mM in 220 mL. The extent of reactions was analyzed in one of the two ways: an Elisa-based and a radioactive isotope-based. The quenched samples (200 mL) were transferred to a neutravidin coated plate (Perice) and incubated at room temperature for 40 min to allow biotinylated peptide to bind to neutravidin. The unbound peptide and the rest of the solution was washed away using a plate washer. In the Elisa format, a 200 mL HRP-PY20 anti phosphotyrosine antibody conjugate solution was added. After incubation for about 30 min, the plated was washed to remove unbound antibody-HRP conjugate. An Elisa substrate, K-blue (Neogen), was added and the Elisa reaction quenched with Red-stop (Neogen) after 15 min. The plate was read at A625 in a plate reader. In the isotope-based format, the reactions had been performed in the presence of [γ-^33P]ATP. 200 mL Scintiverce DB was added to each well of the plate with bound biotin-peptide. The plate was sealed and counted in a micro-b-counter (Wallac). IC50 values were obtained by fitting raw data to A625 (cpm)=Vmax*(1−([l]/(IC50+[l])))+b, where b is background.

[4] = Homo sapiens, Fibroblast; read-out: G1/S Chkpt IC50
[5] = Homo sapiens, MDA-MB-468, 72 h; read-out: MTT MDA MB468 IC50
[6] = Homo sapiens, Fibroblast, read-out: G1/S Chkpt IC50

Row | SMILES | IC50 ([1]; 50% cell death) | IC50 ([2]; 50% cell death) | IC50 [3, 4] | IC50 (MDA MB468; [5]) | IC50 (Lck) | IC50 [1] | IC50 [3, 6] | IC50 [2] | IC50 (MDA MB468; Homo sapiens, MDA-MB-468, 72 h, read-out: MTT MDA MB468 IC50)
1 | CS(=O)(=O)Cc1ccc(NC=C2C(=O)Nc3ccc4ncsc4c32)cc1 [Example 76, 8-(4-Methylsulfonylmethyl-phenylamino-methylene)-6,8-dihydro-1-thia-3,6-diaza-as-indacen-7-one] | 1100 to 5000 nM | 1100 to 5000 nM | 1100 to 5000 nM | > 5000 nM | > 100 nM |  |  |  | 
2 | CC(C)(CO)CNS(=O)(=O)c1ccc(NC=C2C(=O)Nc3ccc4ncsc4c32)cc1 [Example 77, N-(3-Hydroxy-2,2-dimethyl-propyl)-4-[(7-oxo-6,7-dihydro-1-thia-3,6-diaza-as-indacen-8-ylidenemethyl)-amino]-benzenesulfonamide] | 1100 to 5000 nM | 600 to 1000 nM | 1100 to 5000 nM | > 5000 nM |  |  |  |  | 
3 | CNS(=O)(=O)Cc1ccc(NN=C2C(=O)Nc3ccc4ncccc4c32)cc1 [Example 68, N-Methyl-C-{4-[N′-(2-oxo-2,3-dihydro-pyrrolo[3,2-f]quinolin-1-ylidene)-hydrazino]-phenyl}-methanesulfonamide] |  |  |  |  | > 100 nM | 1100 to 5000 nM | 1100 to 5000 nM |  | 
4 | CNS(=O)(=O)Cc1ccc(NN=C2C(=O)Nc3cc(C)c(O)c(C)c32)cc1 [Example 99] | 100 to 500 nM | > 5000 nM | 1100 to 5000 nM | 100 to 500 nM | > 100 nM |  |  |  | 
5 | O=C1Nc2ccc3ncsc3c2C1=CNc1ccc(S(=O)(=O)Nc2ccccn2)cc1 [Example 72, 4-[(7-Oxo-6,7-dihydro-1-thia-3,6-diaza-as-indacen-8-ylidenemethyl)-amino]-N-pyridin-2-yl-benzenesulfonamide] |  |  |  |  |  | 1100 to 5000 nM | 1100 to 5000 nM | > 5000 nM | > 5000 nM
